According to article PMC6120666 (The EMBO Journal, 2018):

What was measured:
Experiment in all cases: Drug affinity chromatography with c-ponatinib and LC-MS/MS (ponatinib interactome)
Assay type in all cases: binding
[1] = molecular target: T1, proteins of U2OS cell lysate (Homo sapiens, UniProt P46782); settings: captured protein RPS5, Rank 160
T1 construct: Proteins enriched by c-ponatinib from U2OS cell lysate; endogenous in cells; host or cells: U2OS cell lysate
How it was run: (§1)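 U2OS cell lysate in NP-40 lysis buffer (2 mg protein per pulldown) was incubated with amine-derivatized NHS beads for 2 h at 4 °C. Bound proteins were washed, eluted with 100 mM formic acid, reduced, alkylated and trypsin-digested, then identified by nano-UPLC–MS/MS on Orbitrap instruments with a 60 min gradient.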

[2] = molecular target: T2, proteins of U2OS cell lysate (Homo sapiens, UniProt Q13200); settings: captured protein PSMD2, Rank 205
T2 construct: Proteins enriched by c-ponatinib from U2OS cell lysate; endogenous in cells; host or cells: U2OS cell lysate
How it was run: as §1

[3] = molecular target: T3, proteins of U2OS cell lysate (Homo sapiens, UniProt P51665); settings: PSMD7, 26S proteasome non-ATPase regulatory subunit 7
T3 construct: Proteins enriched by c-ponatinib from U2OS cell lysate; endogenous in cells; host or cells: U2OS cell lysate
How it was run: as §1

[4] = molecular target: T4, proteins of U2OS cell lysate (Homo sapiens, UniProt P07437); settings: TUBB;TUBB2A, Tubulin beta chain
T4 construct: Proteins enriched by c-ponatinib from U2OS cell lysate; endogenous in cells; host or cells: U2OS cell lysate
How it was run: as §1

[5] = molecular target: T5, proteins of U2OS cell lysate (Homo sapiens, UniProt P57678); settings: GEMIN4, Gem-associated protein 4
T5 construct: Proteins enriched by c-ponatinib from U2OS cell lysate; endogenous in cells; host or cells: U2OS cell lysate
How it was run: as §1

[6] = molecular target: T6, proteins of U2OS cell lysate (Homo sapiens, UniProt P0DMV9); settings: HSPA1B, Heat shock 70 kDa protein 1B
T6 construct: Proteins enriched by c-ponatinib from U2OS cell lysate; endogenous in cells; host or cells: U2OS cell lysate
How it was run: as §1

[7] = molecular target: T7, proteins of U2OS cell lysate (Homo sapiens, UniProt O60664); settings: PLIN3, Perilipin-3
T7 construct: Proteins enriched by c-ponatinib from U2OS cell lysate; endogenous in cells; host or cells: U2OS cell lysate
How it was run: as §1

[8] = molecular target: T8, proteins of U2OS cell lysate (Homo sapiens, UniProt Q14165); settings: MLEC, Malectin
T8 construct: Proteins enriched by c-ponatinib from U2OS cell lysate; endogenous in cells; host or cells: U2OS cell lysate
How it was run: as §1

[9] = molecular target: T9, proteins of U2OS cell lysate (Homo sapiens, UniProt Q16181); settings: SEPT7;DKFZp586I031, Septin-7
T9 construct: Proteins enriched by c-ponatinib from U2OS cell lysate; endogenous in cells; host or cells: U2OS cell lysate
How it was run: as §1

[10] = molecular target: T10, proteins of U2OS cell lysate (Homo sapiens, UniProt Q96RR4); settings: CAMKK2, Calcium/calmodulin-dependent protein kinase kinase 2
T10 construct: Proteins enriched by c-ponatinib from U2OS cell lysate; endogenous in cells; host or cells: U2OS cell lysate
How it was run: as §1

[11] = molecular target: T11, proteins of U2OS cell lysate (Homo sapiens, UniProt P55036); settings: PSMD4, 26S proteasome non-ATPase regulatory subunit 4
T11 construct: Proteins enriched by c-ponatinib from U2OS cell lysate; endogenous in cells; host or cells: U2OS cell lysate
How it was run: as §1

[12] = molecular target: T12, proteins of U2OS cell lysate (Homo sapiens, UniProt P08670); settings: VIM, Vimentin
T12 construct: Proteins enriched by c-ponatinib from U2OS cell lysate; endogenous in cells; host or cells: U2OS cell lysate
How it was run: as §1

[13] = molecular target: T13, proteins of U2OS cell lysate (Homo sapiens, UniProt P27816); settings: MAP4, Microtubule-associated protein 4
T13 construct: Proteins enriched by c-ponatinib from U2OS cell lysate; endogenous in cells; host or cells: U2OS cell lysate
How it was run: as §1

[14] = molecular target: T14, proteins of U2OS cell lysate (Homo sapiens, UniProt Q9P2E9); settings: RRBP1, Ribosome-binding protein 1
T14 construct: Proteins enriched by c-ponatinib from U2OS cell lysate; endogenous in cells; host or cells: U2OS cell lysate
How it was run: as §1

[15] = molecular target: T15, proteins of U2OS cell lysate (Homo sapiens, UniProt O43707); settings: ACTN4, Alpha-actinin-4
T15 construct: Proteins enriched by c-ponatinib from U2OS cell lysate; endogenous in cells; host or cells: U2OS cell lysate
How it was run: as §1

[16] = molecular target: T16, proteins of U2OS cell lysate (Homo sapiens, UniProt P34913); settings: EPHX2, Bifunctional epoxide hydrolase 2
T16 construct: Proteins enriched by c-ponatinib from U2OS cell lysate; endogenous in cells; host or cells: U2OS cell lysate
How it was run: as §1

[17] = molecular target: T17, proteins of U2OS cell lysate (Homo sapiens, UniProt Q9UPT5); settings: EXOC7, Exocyst complex component 7
T17 construct: Proteins enriched by c-ponatinib from U2OS cell lysate; endogenous in cells; host or cells: U2OS cell lysate
How it was run: as §1

[18] = molecular target: T18, proteins of U2OS cell lysate (Homo sapiens, UniProt P46060); settings: RANGAP1, Ran GTPase-activating protein 1
T18 construct: Proteins enriched by c-ponatinib from U2OS cell lysate; endogenous in cells; host or cells: U2OS cell lysate
How it was run: as §1

[19] = molecular target: T19, proteins of U2OS cell lysate (Homo sapiens, UniProt P35232); settings: PHB, Prohibitin
T19 construct: Proteins enriched by c-ponatinib from U2OS cell lysate; endogenous in cells; host or cells: U2OS cell lysate
How it was run: as §1

T9 sequence (Q16181 whole entry): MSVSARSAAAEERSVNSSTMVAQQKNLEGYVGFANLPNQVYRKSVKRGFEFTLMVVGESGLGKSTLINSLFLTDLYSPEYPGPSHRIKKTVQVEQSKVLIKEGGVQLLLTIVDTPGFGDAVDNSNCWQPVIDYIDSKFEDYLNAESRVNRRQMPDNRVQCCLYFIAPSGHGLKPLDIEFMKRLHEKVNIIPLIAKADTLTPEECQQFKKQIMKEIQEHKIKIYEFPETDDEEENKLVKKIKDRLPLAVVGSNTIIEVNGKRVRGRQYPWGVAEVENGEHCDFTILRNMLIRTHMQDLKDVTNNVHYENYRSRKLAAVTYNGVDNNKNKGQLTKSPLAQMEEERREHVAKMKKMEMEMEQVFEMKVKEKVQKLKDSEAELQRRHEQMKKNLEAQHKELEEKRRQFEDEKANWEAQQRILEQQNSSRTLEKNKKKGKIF
T14 sequence (Q9P2E9 whole entry): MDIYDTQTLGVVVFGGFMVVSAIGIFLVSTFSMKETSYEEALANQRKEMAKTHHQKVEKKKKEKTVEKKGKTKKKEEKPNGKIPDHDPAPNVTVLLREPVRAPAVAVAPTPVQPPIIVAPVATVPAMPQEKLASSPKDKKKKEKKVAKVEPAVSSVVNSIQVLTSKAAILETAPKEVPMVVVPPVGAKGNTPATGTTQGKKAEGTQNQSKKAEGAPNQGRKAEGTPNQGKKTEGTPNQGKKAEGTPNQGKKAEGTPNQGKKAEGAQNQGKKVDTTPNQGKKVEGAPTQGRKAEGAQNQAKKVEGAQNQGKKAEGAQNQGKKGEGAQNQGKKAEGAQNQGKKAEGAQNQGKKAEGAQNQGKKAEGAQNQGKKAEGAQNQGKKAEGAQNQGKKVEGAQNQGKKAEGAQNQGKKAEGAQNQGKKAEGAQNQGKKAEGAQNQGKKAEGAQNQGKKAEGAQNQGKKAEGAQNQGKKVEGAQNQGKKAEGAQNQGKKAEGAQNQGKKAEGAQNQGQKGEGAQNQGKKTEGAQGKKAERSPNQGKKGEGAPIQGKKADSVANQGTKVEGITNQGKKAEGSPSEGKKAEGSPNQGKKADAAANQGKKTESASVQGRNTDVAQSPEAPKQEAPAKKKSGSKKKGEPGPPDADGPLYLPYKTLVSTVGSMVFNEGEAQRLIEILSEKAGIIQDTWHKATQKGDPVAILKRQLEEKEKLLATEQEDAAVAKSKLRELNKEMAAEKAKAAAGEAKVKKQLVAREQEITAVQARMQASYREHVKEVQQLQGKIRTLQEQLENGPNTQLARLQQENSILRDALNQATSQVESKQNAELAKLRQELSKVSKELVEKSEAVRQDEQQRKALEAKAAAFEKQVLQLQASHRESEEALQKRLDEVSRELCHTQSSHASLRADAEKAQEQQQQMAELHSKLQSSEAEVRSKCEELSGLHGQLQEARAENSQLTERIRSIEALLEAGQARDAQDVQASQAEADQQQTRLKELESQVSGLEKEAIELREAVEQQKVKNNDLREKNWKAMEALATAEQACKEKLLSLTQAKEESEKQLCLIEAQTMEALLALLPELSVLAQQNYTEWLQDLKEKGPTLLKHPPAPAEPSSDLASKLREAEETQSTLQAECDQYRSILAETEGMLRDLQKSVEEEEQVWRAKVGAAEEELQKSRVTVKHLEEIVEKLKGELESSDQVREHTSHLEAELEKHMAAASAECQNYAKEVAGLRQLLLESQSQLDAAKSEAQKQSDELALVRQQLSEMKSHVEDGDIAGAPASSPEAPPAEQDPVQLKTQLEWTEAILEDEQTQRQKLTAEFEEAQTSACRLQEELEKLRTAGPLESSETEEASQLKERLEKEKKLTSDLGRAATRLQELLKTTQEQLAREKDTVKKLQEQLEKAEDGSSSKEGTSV
T5 sequence (P57678 whole entry): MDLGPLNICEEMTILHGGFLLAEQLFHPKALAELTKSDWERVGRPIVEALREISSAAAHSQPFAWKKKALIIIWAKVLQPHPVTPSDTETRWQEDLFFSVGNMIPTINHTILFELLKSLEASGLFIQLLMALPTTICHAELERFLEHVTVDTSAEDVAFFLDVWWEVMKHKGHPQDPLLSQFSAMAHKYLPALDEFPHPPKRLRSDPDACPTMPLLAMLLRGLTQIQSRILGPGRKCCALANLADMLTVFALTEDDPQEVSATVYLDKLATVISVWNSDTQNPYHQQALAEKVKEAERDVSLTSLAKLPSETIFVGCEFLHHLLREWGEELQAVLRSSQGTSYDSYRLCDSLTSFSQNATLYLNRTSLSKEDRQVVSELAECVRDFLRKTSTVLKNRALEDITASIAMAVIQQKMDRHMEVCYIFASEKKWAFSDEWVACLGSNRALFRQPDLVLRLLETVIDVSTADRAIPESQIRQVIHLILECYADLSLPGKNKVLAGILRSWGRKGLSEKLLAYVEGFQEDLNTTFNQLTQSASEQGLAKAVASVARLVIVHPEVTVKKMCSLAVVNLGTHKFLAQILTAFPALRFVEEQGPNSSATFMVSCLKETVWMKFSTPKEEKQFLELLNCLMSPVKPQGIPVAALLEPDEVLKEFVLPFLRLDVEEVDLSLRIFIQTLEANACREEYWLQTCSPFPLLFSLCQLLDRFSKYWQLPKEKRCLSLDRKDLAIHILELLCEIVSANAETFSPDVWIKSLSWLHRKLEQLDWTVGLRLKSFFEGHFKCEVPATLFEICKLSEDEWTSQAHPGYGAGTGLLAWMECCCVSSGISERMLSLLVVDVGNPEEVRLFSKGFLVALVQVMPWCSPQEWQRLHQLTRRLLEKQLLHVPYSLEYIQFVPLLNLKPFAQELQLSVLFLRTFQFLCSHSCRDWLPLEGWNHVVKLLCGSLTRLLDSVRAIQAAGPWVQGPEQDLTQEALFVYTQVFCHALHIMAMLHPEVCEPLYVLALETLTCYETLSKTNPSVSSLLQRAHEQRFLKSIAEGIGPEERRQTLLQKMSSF
T16 sequence (P34913 whole entry): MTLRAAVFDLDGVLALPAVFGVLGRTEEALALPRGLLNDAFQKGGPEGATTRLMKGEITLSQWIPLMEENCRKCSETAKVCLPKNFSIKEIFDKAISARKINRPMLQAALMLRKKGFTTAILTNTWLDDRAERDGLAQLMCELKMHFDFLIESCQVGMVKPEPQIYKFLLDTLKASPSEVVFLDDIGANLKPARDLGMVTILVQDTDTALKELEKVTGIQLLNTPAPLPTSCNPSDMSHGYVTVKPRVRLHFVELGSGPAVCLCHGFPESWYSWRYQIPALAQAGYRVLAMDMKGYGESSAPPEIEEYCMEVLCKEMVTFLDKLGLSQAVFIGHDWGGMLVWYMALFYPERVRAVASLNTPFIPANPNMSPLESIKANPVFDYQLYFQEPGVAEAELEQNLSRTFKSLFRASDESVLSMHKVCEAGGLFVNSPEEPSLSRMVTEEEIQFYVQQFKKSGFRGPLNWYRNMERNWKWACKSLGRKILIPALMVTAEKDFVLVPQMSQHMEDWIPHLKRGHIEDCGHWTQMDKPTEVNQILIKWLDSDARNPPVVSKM
T3 sequence (P51665 whole entry): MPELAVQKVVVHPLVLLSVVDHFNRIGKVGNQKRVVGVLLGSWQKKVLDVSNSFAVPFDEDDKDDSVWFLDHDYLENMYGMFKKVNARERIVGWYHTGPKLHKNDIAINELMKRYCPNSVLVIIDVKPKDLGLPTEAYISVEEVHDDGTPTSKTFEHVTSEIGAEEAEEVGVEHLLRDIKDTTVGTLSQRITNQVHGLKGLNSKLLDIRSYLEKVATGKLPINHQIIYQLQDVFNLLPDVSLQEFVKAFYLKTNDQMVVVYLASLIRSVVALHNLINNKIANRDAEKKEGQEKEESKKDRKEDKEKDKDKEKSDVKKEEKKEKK
T18 sequence (P46060 whole entry): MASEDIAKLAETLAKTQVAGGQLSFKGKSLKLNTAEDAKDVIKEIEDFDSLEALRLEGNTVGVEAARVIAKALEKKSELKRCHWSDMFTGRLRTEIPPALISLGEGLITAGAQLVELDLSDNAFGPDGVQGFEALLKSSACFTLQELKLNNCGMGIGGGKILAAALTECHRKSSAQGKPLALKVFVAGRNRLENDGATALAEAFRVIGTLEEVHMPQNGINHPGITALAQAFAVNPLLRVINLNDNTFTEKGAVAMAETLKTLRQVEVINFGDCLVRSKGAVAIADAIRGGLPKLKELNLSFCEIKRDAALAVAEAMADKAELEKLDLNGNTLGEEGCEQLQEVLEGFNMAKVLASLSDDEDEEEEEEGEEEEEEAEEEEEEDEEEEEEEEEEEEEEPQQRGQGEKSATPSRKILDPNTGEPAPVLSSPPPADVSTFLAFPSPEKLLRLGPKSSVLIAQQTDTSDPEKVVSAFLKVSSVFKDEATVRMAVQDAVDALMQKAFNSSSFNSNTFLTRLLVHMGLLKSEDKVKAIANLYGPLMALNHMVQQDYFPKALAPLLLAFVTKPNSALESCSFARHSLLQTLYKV
T6 sequence (P0DMV9 whole entry): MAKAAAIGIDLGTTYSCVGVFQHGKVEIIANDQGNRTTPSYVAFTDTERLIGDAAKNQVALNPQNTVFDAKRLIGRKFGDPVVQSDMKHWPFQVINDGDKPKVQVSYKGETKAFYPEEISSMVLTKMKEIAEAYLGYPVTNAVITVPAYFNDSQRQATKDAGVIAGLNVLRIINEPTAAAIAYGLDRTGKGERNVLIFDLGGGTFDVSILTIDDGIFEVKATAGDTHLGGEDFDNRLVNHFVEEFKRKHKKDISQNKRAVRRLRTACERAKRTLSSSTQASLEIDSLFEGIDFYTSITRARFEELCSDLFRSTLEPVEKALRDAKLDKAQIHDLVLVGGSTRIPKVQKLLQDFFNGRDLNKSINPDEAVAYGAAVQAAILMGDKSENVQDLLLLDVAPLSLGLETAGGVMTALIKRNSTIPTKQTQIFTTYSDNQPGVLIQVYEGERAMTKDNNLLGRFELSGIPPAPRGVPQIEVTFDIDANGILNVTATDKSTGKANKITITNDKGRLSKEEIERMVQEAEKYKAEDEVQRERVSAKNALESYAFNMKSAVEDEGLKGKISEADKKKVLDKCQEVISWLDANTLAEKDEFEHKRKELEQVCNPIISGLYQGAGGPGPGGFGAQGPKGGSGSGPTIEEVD

Row | Compound | Average LFQ intensity [1] | Average LFQ intensity [2] | Average LFQ PON_WT [3] | Average LFQ PON_WT [4] | Average LFQ PON_WT [5] | Average LFQ PON_WT [6] | Average LFQ PON_WT [7] | Average LFQ PON_WT [8] | Average LFQ PON_WT [9] | Average LFQ PON_WT [10] | Average LFQ PON_WT [11] | Average LFQ PON_WT [12] | Average LFQ PON_WT [13] | Average LFQ PON_WT [14] | Average LFQ PON_WT [15] | Average LFQ PON_WT [16] | Average LFQ PON_WT [17] | Average LFQ PON_WT [18] | Average LFQ PON_WT [19]
1 | Cc1ccc(C(=O)Nc2ccc(CN3CCN(CCCN)CC3)c(C(F)(F)F)c2)cc1C#Cc1cnc2cccnn12 [c-ponatinib, reference compound] | 22.4465 | 21.768 | – | – | – | – | – | – | – | – | – | – | – | – | – | – | – | – | –
2 | Cc1ccc(C(=O)Nc2ccc(CN3CCN(C)CC3)c(C(F)(F)F)c2)cc1C#Cc1cnc2cccnn12 [PON] | – | – | 21.0889 | 24.4278 | 20.1071 | 24.1054 | 20.1604 | 19.5713 | 23.204 | 20.0519 | 21.0725 | 26.7986 | 23.7532 | 20.1458 | 19.9578 | 24.5257 | 19.8682 | 21.315 | 29.1615
